Data: article PMC10714399, “Open Source Antibiotics: Simple Diarylimidazoles Are Potent against Methicillin-Resistant Staphylococcus aureus” (ACS Infectious Diseases, 2023)
In brackets after ≈: the same amount, converted by molar mass. Several values for one entry are separate records, joined by “and”; a condition that tells them apart may be missing. Equal entries are not always repeated. Where two headings read alike, the source gives them in different places.

Columns and labels:
[1] = test system: Staphylococcus aureus NCTC 13373 (mecA-positive; methicillin-resistant); assay: In vitro antibacterial activity, MIC (UCL School of Pharmacy assay), MRSA; type: cell-based; details: for MIC: Staphylococcus aureus
How it was run: (§1)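 Two-fold dilution MIC testing, 32–0.03 μg/mL, isosensitest broth medium. Cultures standardized by absorbance at 600 nm (0.1, ~1 × 10^8 CFU/mL) before 1:100 dilution; vancomycin included for quality control.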

[2] = test system: S. aureus ATCC 25923 (methicillin-susceptible); assay: In vitro antibacterial activity, MIC (UCL), MSSA; type: cell-based, Staphylococcus aureus; details: for MIC: Staphylococcus aureus
How it was run: as §1

[3] = test system: Enterococcus faecalis ATCC 51299 (vanA-positive; vancomycin-resistant); assay: In vitro antibacterial activity, MIC (UCL), VRE; type: cell-based
How it was run: as §1

[4] = test system: VSE; assay: In vitro antibacterial activity, MIC, VSE; type: cell-based
[5] = test system: MRC-5SV2 (human lung fibroblast cell line); assay: Toxicity against MRC-5SV2; type: cell-based
Experimental: (§2) ADME and toxicity for compounds were measured according to procedures outlined in the manuscript submitted in parallel to this one;2 other procedures were used for those compounds analysed by Monash University (in vitro ADME) or UCL (toxicity), both described in the main

[6] = test system: PMM (primary mouse macrophages); assay: Toxicity against PMM; type: cell-based
Experimental: as §2

[7] = Human plasma protein binding (PPB); type: in vitro ADME; details: human, plasma, human plasma, NEU; read-out: Human PPB (NEU) (converted)
Text: (§3) To guide our initial SAR exploration work, we obtained liver microsomal intrinsic clearance data for 5 of the 18 compounds assayed by CO-ADD (Supporting Information - CDCO Report and Supporting Information - Biology). We then acquired intrinsic clearance (CLint), plasma protein binding (PPB), and solubility data on further compounds throughout the SAR campaign (Supporting Information - Biology, Tables S3 and S4).
(§4) Table S4. ADME and Pharmacokinetics: compounds only appearing in the Supplementary […]
(§5) MRSA Aqueous HLM CLint Rat Hep CLint
(§6) Cmpd MIC Solubility Human PPB (%) (µL/min/mg (µL/min/10x6 LogD7.4
(§7) (µg/mL) (µM) protein) cells)
as §2

[8] = Human liver microsome intrinsic clearance; type: in vitro ADME; details: human liver microsomes, NEU
Text: as §3, §4, §5, §6, §7, §2

[9] = Rat hepatocyte intrinsic clearance; type: in vitro ADME; details: rat hepatocytes, NEU; for hepatocyte CLint: read-out: Rat Hep CLint (NEU)
Text: as §3, §4, §5, §6, §7, §2

[10] = Aqueous solubility; type: physicochemical; details: NEU; for solubility: thermodynamic from solid, read-out: Aqueous Solubility (NEU)
Text: as §3, with “S4). […] The more polar compounds (lower LogD) had reduced PPB and were more metabolically stable.” for “S4).”
as §4, §5, §6, §7, §2

[11] = LogD7.4 (Chrom Log D); type: physicochemical; details: chromatographic system (Chrom Log D); pH 7.4, NEU; read-out: LogD 7.4 (NEU)
Text: as §3, with “S4). […] The more polar compounds (lower LogD) had reduced PPB and were more metabolically stable.” for “S4).”
as §4, §5, §6, §7, §2

Compound	MRSA MIC [1]	MSSA MIC [2]	VRE MIC [3]	VSE MIC [4]	MIC ([1]; UCL, read-out: MRSA MIC (UCL))	MIC ([2]; read-out: MSSA MIC (UCL))	MIC ([3]; read-out: VRE MIC (UCL))	MIC ([4]; read-out: VSE MIC (UCL))	MRC5 TC50 [5]	PMM TC50 [6]	MRC5 TC50 ([5]; MRC5 cells)	PMM TC50 ([6]; PMM)	other results
N#CCc1ccc(-n2c(-c3ccccn3)nc3ccccc32)cc1 [compound 996]	> 32 µg/mL and 32 µg/mL	32 µg/mL	> 32 µg/mL	> 32 µg/mL					19.9 µg/mL	19.9 µg/mL			
OC1CCn2c1nc(-c1ccccn1)c2-c1ccc2occc2c1 (centres unmarked) [compound 997]					> 32 µg/mL	> 32 µg/mL	> 32 µg/mL	> 32 µg/mL					activity against MRSA, in words [1]: inactive; MIC ([1]; 16 h, read-out: MRSA MIC): > 32 µg/mL; MIC ([1]; read-out: MRSA MIC): > 32 µg/mL; MIC ([2]; read-out: MSSA MIC): > 32 µg/mL; MIC ([3]; read-out: VRE MIC): > 32 µg/mL; MIC ([4]; read-out: VSE MIC): > 32 µg/mL
c1ccc(Cn2c(-c3ccccn3)nc3ccccc32)cc1 [OSA_000993]					> 32 µg/mL	> 32 µg/mL	> 32 µg/mL	> 32 µg/mL			64 µM	64 µM	
c1ccc(-c2nc3ccccc3n2-c2ccc(N3CCCCC3)cc2)nc1 [OSA_000994]					16 µg/mL (≈ 45.1 µM)	32 µg/mL (≈ 90.3 µM)	32 µg/mL (≈ 90.3 µM)	32 µg/mL (≈ 90.3 µM)			19.81 µM	15.32 µM	
COc1ccc2nc(-c3ccccn3)c(N(C)c3cc(F)cc(F)c3)n2c1 [compound 998]	8 µg/mL	8 µg/mL	32 µg/mL	16 µg/mL									
c1ccc(-c2nc3ccccc3n2-c2ccc(N3CCOCC3)cc2)nc1 [OSA_000995]					> 32 µg/mL	> 32 µg/mL	> 32 µg/mL	> 32 µg/mL			64 µM	64 µM	
Cc1ccc(Nc2c(-c3ccccn3)nc3ccccn23)cc1 [compound 988]													MIC ([1]; read-out: MRSA MIC): 4 µg/mL (≈ 13.3 µM); MIC ([2]; read-out: MSSA MIC): 4 µg/mL (≈ 13.3 µM); MIC ([3]; read-out: VRE MIC): 16 µg/mL (≈ 53.3 µM); MIC ([4]; read-out: VSE MIC): 16 µg/mL (≈ 53.3 µM)
c1ccc(-c2nc3ccccc3n2-c2ccc(N3CCOCC3)cc2)nc1 [compound 995]	> 32 µg/mL and 32 µg/mL	> 32 µg/mL	> 32 µg/mL	> 32 µg/mL					22.8 µg/mL	22.8 µg/mL			
COc1ccc(-c2nc3ccc(OC)cn3c2N(C)c2ccc(F)cc2)nc1 [OSA_000999]					8 µg/mL (≈ 21.1 µM)	8 µg/mL (≈ 21.1 µM)	16 µg/mL (≈ 42.3 µM)	16 µg/mL (≈ 42.3 µM)					solubility [10]: 27 µM (≈ 10.2 µg/mL); fraction unbound [7]: 0.0063; HLM CLint (NEU) [8]: 261 uL/min/mg protein; hepatocyte CLint [9]: > 300 µL/min/1e6 cells
Fc1ccc(Nc2c(-c3ccccn3)nc3ccccn23)cc1 [compound 987]									2.3 µg/mL	9.7 µg/mL			MIC ([1]; read-out: MRSA MIC): 8 µg/mL (≈ 26.3 µM); MIC ([2]; read-out: MSSA MIC): 16 µg/mL (≈ 52.6 µM); MIC ([3]; read-out: VRE MIC): 32 µg/mL (≈ 105 µM); MIC ([4]; read-out: VSE MIC): 32 µg/mL (≈ 105 µM)
COc1ccnc(-c2nc3cc(OC)ccn3c2N(C)c2ccc(F)cc2)c1 [compound 1000]	2 µg/mL	8 µg/mL	8 µg/mL	8 µg/mL									
c1ccc(-c2nc3ccccc3n2-c2ccc(N3CCCCC3)cc2)nc1 [compound 994]	16 µg/mL	32 µg/mL	32 µg/mL	32 µg/mL					7.0 µg/mL	5.4 µg/mL			
N#CCc1ccc(-n2c(-c3ccccn3)nc3ccccc32)cc1 [OSA_000996]					> 32 µg/mL	32 µg/mL (≈ 103 µM)	> 32 µg/mL	> 32 µg/mL			64 µM	64 µM	
Fc1ccc(-c2c(-c3ccccn3)nc3ccccn23)cn1 [compound 986]													activity against MRSA, in words [1]: inactive; MIC ([1]; read-out: MRSA MIC): > 32 µg/mL; MIC ([2]; read-out: MSSA MIC): > 32 µg/mL; MIC ([3]; read-out: VRE MIC): > 32 µg/mL; MIC ([4]; read-out: VSE MIC): > 32 µg/mL
c1ccc(Cn2c(-c3ccccn3)nc3ccccc32)cc1 [compound 993]	> 32 µg/mL and 32 µg/mL	> 32 µg/mL	> 32 µg/mL	> 32 µg/mL					18.3 µg/mL	18.3 µg/mL			

The next lines start with results.

MRSA MIC [1]	MSSA MIC [2]	VRE MIC [3]	VSE MIC [4]	MIC ([1]; UCL, read-out: MRSA MIC (UCL))	MIC ([2]; read-out: MSSA MIC (UCL))	MIC ([3]; read-out: VRE MIC (UCL))	MIC ([4]; read-out: VSE MIC (UCL))	Compound	MRC5 TC50 [5]	PMM TC50 [6]	MRC5 TC50 ([5]; MRC5 cells)	PMM TC50 ([6]; PMM)	other results
> 32 µg/mL and 32 µg/mL	> 32 µg/mL	> 32 µg/mL	> 32 µg/mL					N#Cc1ccc(-n2c(-c3ccccn3)nc3ccccc32)cc1 [compound 990]	19.0 µg/mL	19.0 µg/mL			
				> 32 µg/mL	> 32 µg/mL	> 32 µg/mL	> 32 µg/mL	Fc1cc(-c2c(-c3ccccn3)nc3ccccn23)ccn1 [OSA_000986]					
8 µg/mL	8 µg/mL	16 µg/mL	16 µg/mL					Clc1ccn2c(-c3ccc4occc4c3)c(-c3ccccn3)nc2c1 [compound 985]					
				> 32 µg/mL	> 32 µg/mL	> 32 µg/mL	> 32 µg/mL	NC(=O)c1ccc(-n2c(-c3ccccn3)nc3ccccc32)cc1 [OSA_000989]			64 µM	64 µM	
				> 32 µg/mL	> 32 µg/mL	> 32 µg/mL	> 32 µg/mL	N#Cc1ccc(-n2c(-c3ccccn3)nc3ccccc32)cc1 [OSA_000990]			64 µM	64 µM	
				> 32 µg/mL	> 32 µg/mL	> 32 µg/mL	> 32 µg/mL	c1ccc(-n2c(-c3ccccn3)nc3ccccc32)cc1 [OSA_000992]			64 µM	64 µM	
				> 32 µg/mL	> 32 µg/mL	> 32 µg/mL	> 32 µg/mL	c1ccc(-c2nc3ccccc3n2-c2ccc3occc3c2)nc1 [OSA_000991]			64 µM	38.63 µM	
	> 32 µg/mL	> 32 µg/mL	> 32 µg/mL					c1ccc(-c2nc3ccccc3n2-c2ccc3occc3c2)nc1 [compound 991]	19.9 µg/mL	12.0 µg/mL			
				4 µg/mL (≈ 13.3 µM)	4 µg/mL (≈ 13.3 µM)	16 µg/mL (≈ 53.3 µM)	16 µg/mL (≈ 53.3 µM)	Cc1ccc(Nc2c(-c3ccccn3)nc3ccccn23)cc1 [OSA_000988]					fraction unbound [7]: 0.007; microsomal CLint ([8]; read-out: HLM CLint (NEU)): 86.9 µL/min/mg; hepatocyte CLint [9]: > 300 µL/min/1e6 cells
				2 µg/mL (≈ 5.77 µM)	2 µg/mL (≈ 5.77 µM)	4 µg/mL (≈ 11.5 µM)		CCCN(c1ccc(F)cc1)c1c(-c2ccccn2)nc2ccccn12 [OSA_000982]			4.3 µM	2 µM	Aqueous Solubility (NEU) [10]: 3 µM; fraction unbound [7]: 0.0073; HLM CLint (NEU) [8]: 61.8 uL/min/mg protein; Rat Hep CLint (NEU) [9]: 108 uL/min/10x6 cells
				8 µg/mL (≈ 23.1 µM)	8 µg/mL (≈ 23.1 µM)	16 µg/mL (≈ 46.3 µM)	16 µg/mL (≈ 46.3 µM)	Clc1ccn2c(-c3ccc4occc4c3)c(-c3ccccn3)nc2c1 [OSA_000985]					
> 32 µg/mL and 32 µg/mL	> 32 µg/mL	> 32 µg/mL	> 32 µg/mL					NC(=O)c1ccc(-n2c(-c3ccccn3)nc3ccccc32)cc1 [compound 989]	20.1 µg/mL	20.1 µg/mL			
				8 µg/mL (≈ 25.8 µM)	4 µg/mL (≈ 12.9 µM)	8 µg/mL (≈ 25.8 µM)		Fc1ccc(Nc2c(-c3ccccn3)nc3sccn23)cc1 [OSA_000984]			6.4 µM	32 µM	solubility [10]: 54 µM (≈ 16.8 µg/mL); chromatographic logD [11]: 0.9; fraction unbound [7]: 0.014; hepatocyte CLint [9]: > 300 µL/min/1e6 cells
> 32 µg/mL and 32 µg/mL	> 32 µg/mL	> 32 µg/mL	> 32 µg/mL					c1ccc(-n2c(-c3ccccn3)nc3ccccc32)cc1 [compound 992]	17.4 µg/mL	17.4 µg/mL			
